Reference: US5260275A, “Hypoglycemics” (Amylin Pharmaceuticals, Inc., priority 1990, dated 1993)

Columns and labels:
HIT T-15 cells [1] = assay: Insulin release from HIT T-15 cells; format: cell-based, hamster
Experimental: (§1) HIT T-15 cells (HIT cells; American Type Tissue Collection, Rockville, MD; R. F. Santerre, et al. (1981) Proc. Nat. Acad. Sci. USA 78, 4339-4343.) were subcultured weekly in Ham's F-12 medium (Irvine Scientific, Santa Ana, Calif.) containing 10% horse serum (Gemini Bioproducts, Calabasas, Calif.), 2.5% fetal bovine serum (FBS; Gemini), 2 mM L-glutamine, and 10.0 mM glucose. Cells were maintained at 37° C. and 5% CO2 / 95% humidified air and medium was replaced every 2 to 3 days. All experiments were performed with cells from passages 66 to 71.
(§2) Amylin and insulin secretion were measured using reagents of analytical grade unless otherwise indicated. The secretion medium was a Krebs-Ringer buffer (KRB) containing 119 mM NaCl, 4.74 mM KCl, 2,54 mM CaCl2, 1.19 mM MgSO4, 1.19 mM KH2 PO4, 25 mM NaHCO3, 10 mM HEPES and 0.1% protease-free bovine serum albumin (Cohn fraction V; Sigma Chemical Co., St. Louis Mo.) at pH 7.4. Glibenclamide (Sigma) was initially dissolved in ethanol (50 mg/ml) then diluted to working concentrations in KRB. […] Tolbutamide (Sigma) was initially dissolved in dimethylsulfoxide (50 mg/ml). […] Metformin (Sigma) was diluted in KRB.
(§3) Five days before each secretion study cells were subcultured at 0.26×10^6 cells/0.8 ml medium/well in 24-well tissue culture plates (Corning Glass Works, Corning N.Y.). Medium was replaced on day 3. On day 5 cells were washed twice with 1.0 ml KRB then incubated in 1.0 ml KRB (30 minutes, 37° C.) in equilibrium with air. Cells were washed twice more prior to addition of 0.5 ml KRB containing the indicated concentrations of glucose, metformin, tolbutamide and glibenclamide. After a 60 minute incubation with test substance or substances, supernatants were centrifuged (5 minutes, 500×g, 5° C.; GPKR centrifuge, Beckman Instruments, Inc., Palo Alto, Calif.) to remove cell debris, then stored in polypropylene micro test tubes (Brinkman Instrument Co., Westbury, N.Y.) at -20° C. until analyzed by radioimmunoassay. Supernatants were analyzed for insulin and amylin content within one week of collection. Three wells per plate were randomly selected for cell quantitation. Cells were incubated with 75 μg trypsin and 30 μg EDTA in 150 μl normal saline (8 minutes, 37° C.), then counted on a Coulter Counter (Model Zf, Coulter Electronics, Hialeah, Fla.).
(§4) Immunoreactive insulin content in supernatants was measured using a commercial radioimmunoassay (IM.78; Amersham, Arlington Heights, Ill.). […] The radioimmunoassay for immunoreactive amylin was as follows. Assay diluent was phosphate-buffered saline (PBS; 137 mM NaCl, 2.68 mM KCl, 1.47 mM KH2 PO4, 6.65 mM Na2 HPO4) containing 0.1% Triton-X 100 (v/v), 0.01% NaN3 (w/v), and 0.1% gelatin (v/v; teleostean, 45% aqueous solution, Sigma) at pH 7.4. All incubations were performed at 4° C. ^125 I-[Tyr 37]-human synthetic amylin tracer was iodinated by the chloramine-T method and purified on a C18 Sep-Pak (Waters Associates, Milford, Mass.). Specific activity was approximately 500 μCi/μg.
Data in FIGS. 3 and 4 are shown as the mean±S.D. of 4 replicate samples. An unpaired Student's t-test was used to compare secretion in the absence and presence of hypoglycemic agent (Statview 512+ program; Brain Power, Inc., Calabasas, Calif.).
as §1, with “Md.)” for “MD; R. F. Santerre, et al. (1981) Proc. Nat. Acad. Sci. USA 78, 4339-4343.)”, “L-glutamine, 10^5 IU penicillin G/1, 100 mg streptomycin/1” for “L-glutamine,”, “C02/” for “CO2 /”, “62” for “66”

HIT T-15 cells [2] = assay: Amylin/insulin (A/I) secretion ratio of HIT T-15 cells; format: cell-based, hamster
Experimental: as §1, with “Md.)” for “MD; R. F. Santerre, et al. (1981) Proc. Nat. Acad. Sci. USA 78, 4339-4343.)”, “L-glutamine, 10^5 IU penicillin G/1, 100 mg streptomycin/1” for “L-glutamine,”, “C02/” for “CO2 /”, “62” for “66”
Five days before each secretion study, cells were subcultured at 0.26×10^6 cells per 0.8 ml medium per well in 24-well tissue culture plates. Medium was replaced on day 3. On day 5 cells were washed twice with […] 1.0 ml Krebs-Ringer buffer (KRB) containing 119 mM NaCl, 4.74 mM KCl, 2.54 mM CaCl2, 1.19 mM KH2 PO4, 25 mM NaHCO3, 10 mM HEPES and 0.1% protease-free bovine serum albumin (Cohn fraction V; Sigma Chemical Co., St. Louis Mo.) at pH 7.4. After washing 1.0 ml KRB was added and plates were incubated for 30 minutes at 37° C. in equilibrium with air. […] After a 60 minute incubation with test substance, supernatants were centrifuged to remove cell debris, then stored at -20° C. Supernatants were analyzed for insulin and amylin content by radioimmunoassay within one week of collection. Three wells per plate were trypsinized and cells per well were quantitated using a Coulter Counter (Model Zf, Coulter Electronics, Hialeah, Fla.). Data are expressed as the percentage change in pmoles of hormone released/10^6 cells, relative to controls (absence of test substance) or as the moles of amylin released/mole of insulin/10^6 cells/hour (A/I ratio).
Immunoreactive insulin content in supernatants was measured using a commercial radioimmunoassay (IM.78; Amersham, Arlington Heights, Ill.). Human insulin standards were prepared in KRB. […] The radioimmunoassay for immunoreactive amylin was as described in Example 7 above.

HIT T-15 cells [3] = assay: Amylin release from HIT T-15 cells; format: cell-based, hamster
Experimental: as §1, §2, §3, §4
Standards and unknowns were run in triplicate or duplicate respectively. After an 18 hour incubation, 100 μl of tracer containing 20,000 dpm was added and samples were incubated an additional 18 hours. To ensure complete immunoprecipitation of amylin:antibody complexes, 100 μl of rabbit gamma globulin (0.35 mg/ml, Scantibodies Laboratory, Santee, Calif.) and 100 μl of goat anti-rabbit gamma globulin (0.50 mg/ml, purified grade; Scantibodies) were added. After a 15 minute incubation, 1.0 ml 2% polyethylene glycol (w/v. MW 8,000; Sigma) in assay buffer was added and samples were centrifuged (30 minutes, 1500×g, 5° C.). Samples were decanted and pellets were counted on a gamma counter (model 1277; LKB Wallac, Turku, Finland).
Data in FIGS. 3 and 4 are shown as the mean±S.D. of 4 replicate samples.

[4] = system: isolated rat islets of Langerhans; assay: Glucose-stimulated insulin secretion from isolated rat islets of Langerhans; format: cell-based; details: substance 650 nmol/L; glucose 10 mmol/L
Experimental: The following experiments illustrate the fact that subpeptides of amylin can act to reduce the amount of insulin produced by isolated islets of Langerhans in response to a standard glucose challenge. Similar results have been obtained using whole amylin. All experiments were performed by known methods used in experimental practice. See, e.g., Lacey P. E., and Kostianovsky M., Method for the Isolation of Intact Islets of Lanaerhans from the Rat Pancreas. Diabetes 1967; 16:35-39.
Briefly, rats were killed, and islets of Langerhans were isolated from their pancreases. Experiments were performed either with freshly isolated islets or after overnight incubation of islets (23 h) in standard culture medium and conditions at 37° C. Synthetic amylin peptide 27-37 or synthetic calcitonin gene related peptide (CGRP) was dissolved in a 1.0 mmol/L citric acid/sodium citrate buffer, pH 3.0, and the concentration of the amylin 27-37 was verified by quantitative amino acid analysis. See, e.g., Cooper G. J. S. et al., Proc Natl Acad Sci USA 1987; 84:8628-8632. […] Stimulation of islets was carried out at the standard stimulatory glucose concentration of 10 mmol/L.
Production of insulin is expressed as μU/islet/h. All experiments were performed with five replicates per point. The integrity of the islet response was assessed by comparing the responses after stimulation of different aliquots of islets by two and ten mmol/L glucose, respectively, and the strength of the inhibitory response was judged against that induced by 1 μg/ml (650 nmol/L) somatostatin. Somatostatin is a 14 amino acid peptide which is a known, potent inhibitor of the insulin secretory response of islet B-cells to glucose. Arimura A. Biomed res1981; 2:233-257. […] Petterson M., Ahren B., Bottcher G., Sundler F., Endocrinology 1986; 119:865-869.
The results are shown in TABLE 5 below and all results are expressed as standard error of the mean (s.e.m.). The significance of differences between the means of groups is assessed by the t-test. The result of stimulation by 10 mmol/L glucose is compared with the results of stimulation at 2 mmol/L glucose. In all other experimental conditions, the significance of the inhibitory effect is measured against the effect of 10 mmol/L glucose alone.

[5] = molecular target: T1, insulin receptor on red blood cells (Homo sapiens, UniProt P06213); assay: Displacement of insulin from its receptor on red blood cells; format: binding
T1 construct: endogenous in cells; host or cells: red blood cells

[6] = cells challenged with 10 mM glucose plus 15 mM arginine
[7] = 10 mM glucose or 15 mM arginine alone or in combination, n=3

`C[C@H](N)C(=O)NCC(=O)N[C@H]1CSSC[C@@H](C(=O)O)NC(=O)[C@H](CO)NC(=O)[C@H]([C@@H](C)O)NC(=O)[C@H](Cc2ccccc2)NC(=O)[C@H]([C@@H](C)O)NC(=O)[C@H](CCCCN)NC(=O)[C@H](Cc2c[nH]c3ccccc23)NC(=O)[C@H](Cc2ccccc2)NC(=O)[C@H](Cc2ccccc2)NC(=O)[C@H](CC(N)=O)NC(=O)[C@H](CCCCN)NC1=O` [Somatostatin] was tested, and the “Effect on insulin release (in words)” value (HIT T-15 cells [1]; [6]) was “suppressed both amylin and insulin release”, the A/I ratio (HIT T-15 cells [2]; over the somatostatin concentration range tested, 10 mM glucose plus 15 mM arginine) was 0.36±0.02 and the “Effect on amylin release (in words)” value (HIT T-15 cells [3]; [6]) was “suppressed both amylin and insulin release”. The Insulin production [4] was 44 μU/islet/hr and the “Relative insulin secretion inhibition (percentage by which insulin production is reduced from control)” value [4] was 45%.
`N=C(N)NCCC[C@H](N)C(=O)O` [arginine] was tested, and the “Effect on insulin secretion (in words)” value (HIT T-15 cells [1]; increasing arginine, 60 min) was “stimulated amylin and insulin secretion in a dose-dependent manner”, the A/I ratio (HIT T-15 cells [2]; [7]) was 0.41±0.05 and the “Mean A/I ratio” value (HIT T-15 cells [2]; over the arginine concentration range tested) was 0.44±0.02. The “Effect on amylin secretion (in words)” value (HIT T-15 cells [3]; increasing arginine, 60 min) was “stimulated amylin and insulin secretion in a dose-dependent manner”.
In the case of `O=C[C@H](O)[C@@H](O)[C@H](O)[C@H](O)CO` [glucose], the “Increase in insulin secretion” value (HIT T-15 cells [1]; 10 mM glucose, control (no drug) conditions) is reported as 4 to 5 fold, the “Concentration of maximum insulin secretion” value (HIT T-15 cells [1]; 60 min incubation) is reported as 20 mM and the EC50 (HIT T-15 cells [1]; Mesocricetus auratus, HIT-T15, 1 h, 60 min incubation, read-out: Half-maximal response (EC50), insulin secretion) is reported as roughly 2000 µM. For the same compound, the A/I ratio (HIT T-15 cells [2]; [7]) was 0.32±0.01, the “Increase in secretion of amylin” value (HIT T-15 cells [3]; 10 mM glucose, control conditions) was 2.5 to 4 fold and the “Concentration of maximum amylin secretion” value (HIT T-15 cells [3]; 60 min incubation) was 20 mM. The EC50 (HIT T-15 cells [3]; Mesocricetus auratus, HIT-T15, 1 h, 60 min incubation, read-out: Half-maximal response (EC50), amylin secretion) was roughly 2000 µM.
With “amylin: 37-residue peptide hormone from pancreatic amyloid; preparation not specified at this place (KCNTATCATQRLANFLVHSSNNFGAILSSTNVGSNTY; Islet amyloid polypeptide; UniProt P10997 34-70, looked up)” the “Displacement of insulin from its receptor (in words)” value [5] was “not capable of significantly displacing insulin”.
